The record followed here is PubChem BioAssay AID1259407 (Chemical Carcinogenesis Research Information System (CCRIS), 2018).

The subject of this data set is CCRIS mutagenicity, Ames/micronucleus/aberration tests. The experiment in a line: CCRIS mutagenicity studies.
Setting [1] is: Test System: AMES SALMONELLA TYPHIMURIUM, Strain/Indicator: TA100, Metabolic Activation: NONE, Method: STANDARD PLATE.
The mark [2] stands for this setting: Test System: AMES SALMONELLA TYPHIMURIUM, Strain/Indicator: TA98, Metabolic Activation: NONE, Method: STANDARD PLATE.

Activity calls are given as the source filed them. The rule behind the calls is not given here.

As for `N[C@@H](CCC(=O)N[C@@H](CS/C(Cl)=C(\Cl)C(Cl)=C(Cl)Cl)C(=O)NCC(=O)O)C(=O)O`, the mutagenic call by setting is: (Test System: AMES SALMONELLA TYPHIMURIUM, Strain/Indicator: TA100, Metabolic Activation: NONE, Method: PREINCUBATION) “active; positive”; under setting [1], “inactive; negative”; (Test System: AMES SALMONELLA TYPHIMURIUM, Strain/Indicator: TA100, Metabolic Activation: RAT, KIDNEY, CYTOSOL, Method: PREINCUBATION) “active; positive”; (Test System: AMES SALMONELLA TYPHIMURIUM, Strain/Indicator: TA100, Metabolic Activation: RAT, KIDNEY, MICROSOMES, Method: PREINCUBATION) “active; positive”; (Test System: AMES SALMONELLA TYPHIMURIUM, Strain/Indicator: TA100, Metabolic Activation: RAT, KIDNEY, MITOCHONDRIA, Method: PREINCUBATION) “active; positive”; (Test System: AMES SALMONELLA TYPHIMURIUM, Strain/Indicator: TA100, Metabolic Activation: RAT, KIDNEY, S-9, AROCLOR 1254, Method: STANDARD PLATE) “active; positive”.
With `NNc1ccn([C@@H]2C[C@H](O)[C@@H](CO)O2)c(=O)n1`, the mutagenic call (Test System: CHINESE HAMSTER V-79, Strain/Indicator: V-79/6-THIOGUANINE, Metabolic Activation: NONE, Method: REPLATING) is “inactive; negative”.
For the molecule `CC(=O)Nc1ccc(Cc2ccc(NC(C)=O)cc2)cc1`, the mutagenic call under setting [2] is “inactive; negative”; the mutagenic call (Test System: AMES SALMONELLA TYPHIMURIUM, Strain/Indicator: TA98, Metabolic Activation: RAT, LIVER, S-9, PCB, Method: STANDARD PLATE) was “inactive; negative”; the mutagenic call under setting [1] was “inactive; negative”; the mutagenic call (Test System: AMES SALMONELLA TYPHIMURIUM, Strain/Indicator: TA100, Metabolic Activation: RAT, LIVER, S-9, PCB, Method: STANDARD PLATE) was “inactive; negative”.
Turning to `CNN`, the mutagenic call is “active; positive (structural changes)” (End Point: IN VITRO CHROMOSOMAL ABERRATIONS, Test System: CHL CELLS, Metabolic Activation: RAT, LIVER, S-9, SODIUM PHENOBARBITAL AND 5,6-BENZOFLAVONE); “inactive; negative” (Test System: AMES SALMONELLA TYPHIMURIUM, Strain/Indicator: TA98, Metabolic Activation: NONE, Method: PREINCUBATION); “inactive; negative” (Test System: AMES SALMONELLA TYPHIMURIUM, Strain/Indicator: TA98, Metabolic Activation: RAT LIVER S-9, PHENOBARBITAL AND BETA-NAPHTHOFLAVONE, Method: PREINCUBATION); “inactive; negative” (Test System: AMES SALMONELLA TYPHIMURIUM, Strain/Indicator: TA100, Metabolic Activation: RAT LIVER S-9, PHENOBARBITAL AND BETA-NAPHTHOFLAVONE, Method: PREINCUBATION); “active; positive” (Test System: AMES SALMONELLA TYPHIMURIUM, Strain/Indicator: TA102, Metabolic Activation: NONE, Method: PREINCUBATION); “active; positive” (Test System: AMES SALMONELLA TYPHIMURIUM, Strain/Indicator: TA1535, Metabolic Activation: RAT LIVER S-9, PHENOBARBITAL AND BETA-NAPHTHOFLAVONE, Method: PREINCUBATION). Also, the mutagenic call is, setting by setting: (Test System: AMES SALMONELLA TYPHIMURIUM, Strain/Indicator: TA1535, Metabolic Activation: RAT, LIVER, S-9, AROCLOR 1254, Method: PREINCUBATION) “inactive; negative”; (Test System: AMES SALMONELLA TYPHIMURIUM, Strain/Indicator: TA1537, Metabolic Activation: NONE, Method: PREINCUBATION) “inactive; negative”; (Test System: AMES SALMONELLA TYPHIMURIUM, Strain/Indicator: TA1537, Metabolic Activation: RAT LIVER S-9, PHENOBARBITAL AND BETA-NAPHTHOFLAVONE, Method: PREINCUBATION) “inactive; negative”; (Test System: AMES SALMONELLA TYPHIMURIUM, Strain/Indicator: TA1537, Metabolic Activation: RAT, LIVER, S-9, AROCLOR 1254, Method: PREINCUBATION) “inactive; negative”; (Test System: E. COLI, Strain/Indicator: WP2 UVRA, Metabolic Activation: NONE, Method: PREINCUBATION) “active; positive”; (Test System: E.COLI, Strain/Indicator: WP2UVRA, Metabolic Activation: RAT LIVER S-9, PHENOBARBITAL AND BETA-NAPHTHOFLAVONE, Method: PREINCUBATION) “active; positive”.
With `O=[N+]([O-])c1ccc2ccc3cc4c(c5ccc1c2c35)C=CCC4`, the mutagenic call (Test System: AMES SALMONELLA TYPHIMURIUM, Strain/Indicator: TA98(1,8-DNP6), Metabolic Activation: NONE, Method: STANDARD PLATE) was “active; positive”; the mutagenic call (Test System: AMES SALMONELLA TYPHIMURIUM, Strain/Indicator: TA98(1,8-DNP6), Metabolic Activation: RAT, LIVER, S-9, AROCLOR 1254, Method: STANDARD PLATE) was “active; positive”; the mutagenic call (Test System: AMES SALMONELLA TYPHIMURIUM, Strain/Indicator: TA98(NR), Metabolic Activation: NONE, Method: STANDARD PLATE) is “active; positive”; the mutagenic call (Test System: AMES SALMONELLA TYPHIMURIUM, Strain/Indicator: TA98(NR), Metabolic Activation: RAT, LIVER, S-9, AROCLOR 1254, Method: STANDARD PLATE) was “active; positive”; the mutagenic call under setting [2] was “active; positive”; the mutagenic call (Test System: AMES SALMONELLA TYPHIMURIUM, Strain/Indicator: TA98, Metabolic Activation: RAT, LIVER, S-9, AROCLOR 1254, Method: STANDARD PLATE) is “active; positive”. Further, the mutagenic call was “inactive; negative” under setting [1] and “active; positive” (Test System: AMES SALMONELLA TYPHIMURIUM, Strain/Indicator: TA100, Metabolic Activation: RAT, LIVER, S-9, AROCLOR 1254, Method: STANDARD PLATE).
For `COc1cc2nc3cc(N)c(OC)cc3nc2cc1N`, the mutagenic call (Test System: AMES SALMONELLA TYPHIMURIUM, Strain/Indicator: TA98, Metabolic Activation: S-9, Method: SUSPENSION/PLATE) is “active; positive”.
As to `O=C([O-])c1ccc2ccccc2c1.[Mn+2].[O-]C(O)c1ccc2ccccc2c1`, the mutagenic call by setting is: (Test System: AMES SALMONELLA TYPHIMURIUM, Strain/Indicator: TA98, Metabolic Activation: HAMSTER, LIVER, S-9, AROCLOR 1254 (10%), Method: STANDARD PLATE) “inactive; negative”; under setting [2], “inactive; negative”; (Test System: AMES SALMONELLA TYPHIMURIUM, Strain/Indicator: TA98, Metabolic Activation: RAT, LIVER, S-9, AROCLOR 1254 (10%), Method: STANDARD PLATE) “inactive; negative”; (Test System: AMES SALMONELLA TYPHIMURIUM, Strain/Indicator: TA100, Metabolic Activation: HAMSTER, LIVER, S-9, AROCLOR 1254 (10%), Method: STANDARD PLATE) “inactive; negative”; under setting [1], “inactive; negative”; (Test System: AMES SALMONELLA TYPHIMURIUM, Strain/Indicator: TA100, Metabolic Activation: RAT, LIVER, S-9, AROCLOR 1254 (10%), Method: STANDARD PLATE) “inactive; negative”. Besides, the mutagenic call (Test System: AMES SALMONELLA TYPHIMURIUM, Strain/Indicator: TA1535, Metabolic Activation: HAMSTER, LIVER, S-9, AROCLOR 1254 (10%), Method: STANDARD PLATE) was “inactive; negative”; the mutagenic call (Test System: AMES SALMONELLA TYPHIMURIUM, Strain/Indicator: TA1535, Metabolic Activation: NONE, Method: STANDARD PLATE) is “inactive; negative”; the mutagenic call (Test System: AMES SALMONELLA TYPHIMURIUM, Strain/Indicator: TA1535, Metabolic Activation: RAT, LIVER, S-9, AROCLOR 1254 (10%), Method: STANDARD PLATE) was “inactive; negative”; the mutagenic call (Test System: AMES SALMONELLA TYPHIMURIUM, Strain/Indicator: TA1537, Metabolic Activation: HAMSTER, LIVER, S-9, AROCLOR 1254 (10%), Method: STANDARD PLATE) was “inactive; negative”; the mutagenic call (Test System: AMES SALMONELLA TYPHIMURIUM, Strain/Indicator: TA1537, Metabolic Activation: NONE, Method: STANDARD PLATE) is “inactive; negative”; the mutagenic call (Test System: AMES SALMONELLA TYPHIMURIUM, Strain/Indicator: TA1537, Metabolic Activation: RAT, LIVER, S-9, AROCLOR 1254 (10%), Method: STANDARD PLATE) is “inactive; negative”. Further, the mutagenic call by setting is: (Test System: AMES SALMONELLA TYPHIMURIUM, Strain/Indicator: TA1538, Metabolic Activation: HAMSTER, LIVER, S-9, AROCLOR 1254 (10%), Method: STANDARD PLATE) “inactive; negative”; (Test System: AMES SALMONELLA TYPHIMURIUM, Strain/Indicator: TA1538, Metabolic Activation: NONE, Method: STANDARD PLATE) “inactive; negative”; (Test System: AMES SALMONELLA TYPHIMURIUM, Strain/Indicator: TA1538, Metabolic Activation: RAT, LIVER, S-9, AROCLOR 1254 (10%), Method: STANDARD PLATE) “inactive; negative”.
